# Laboratory results taken from patent US10836791B2, “Compounds” (DSM IP ASSETS B.V., priority 2016, dated 2020).
# Square brackets hold non-standard residues; d marks the D form. * marks the point of attachment. Palmitoyl = CCCCCCCCCCCCCCCC(=O)*; Octanoyl = CCCCCCCC(=O)*; Hexanoyl = CCCCCC(=O)*
# Tested on: Normal human epidermal melanocytes, lightly pigmented
# Test: Melanin inhibition in L-tyrosine-stimulated melanocytes (melanogenese assay)
# Assay type: cell-based
# Conditions: L-tyrosine 1 mM, 240 hours incubation, inhibition compared to stimulated control
# Procedure: Melanocytes (Normal human epidermal melanocytes, lightly pigmented, 8th passage) were seeded in 24 well plates and cultured for 24 hours in culture medium (M254 supplemented with PMA free HMGS-2, Insulin 5 μg/ml, Penicilline 50 U/ml-Streptomycine 50 μg/ml Gentamycine 25 μg/ml) at 37° C., 5% CO2. The medium was then replaced by culture medium containing the test compounds or the reference (lipoic acid at 5 μg/ml) in presence of L-tyrosine (1 mM). The cells were then incubated for 240 hours with 2 renewals of culture medium containing the test compounds or the reference in presence of L-tyrosine after 96 and 168 hours of incubation. A non-stimulated and a stimulated control were performed in parallel. All experimental conditions were performed in n=3, except for control conditions in n=6. At the end of incubation, the culture supernatants were removed and the melanin was extracted by cell lysis using a 0.5 N NaOH solution. The optical density (OD) of each experimental point was measured at 405 nm and melanin quantity was calculated using melanin standards (standard curve from 0.39 to 100 μg/ml melanin). Results were expressed in μg/ml of melanin and in percentage of inhibition compared to stimulated control.
Substance,Melanin inhibition [%] (1 μM test compound),Melanin inhibition [%] (10 μM test compound)
H-[dW]-Arg-Leu-NH2 [Ref-5],−3%,14%
Hexanoyl-[dW]-Arg-Leu-NH2 [Ref-2],18%,8%
Octanoyl-[dW]-Arg-Leu-NH2 [Ref-4],13%,
Palmitoyl-D-Trp-Arg-ATMPA-NH2 [Ref-6],−3%,−12%
Palmitoyl-D-Trp-NLe-Leu-NH2 [Ref-3],13%,
Palmitoyl-[dW]-Met-Leu-NH2 [Ref-1],25%,43%
